Data on one substance can be found in PMC7618104, “The GLP-1 analogue, exendin-4, improves bone material properties and strength through a central relay in ovariectomized mice” (American journal of physiology. Endocrinology and metabolism, 2025).

Assay [1] relates to splenocytes isolated from BALB/c ovariectomized (OVX) mice. Briefly: Osteoclast differentiation assay (TRAP staining). To be noted: 10 nM Exendin-4, M-CSF + RANKL, 7 days. It is filed as cell-based, mouse (BALB/cJRj). The procedure:
To investigate the potential effect of Exendin-4 (Ex-4) on osteoclast differentiation, we used splenocytes isolated from BALB/c ovariectomized (OVX) mice (BALB/cJRj; Janvier Labs, Saint-Berthevin, France). Mice were ovariectomized at 12 weeks of age, and splenocytes were isolated 4 weeks post-ovariectomy. The splenocytes were cultured in osteoclast differentiation medium (α-MEM supplemented with 10% FBS, 100 U/mL penicillin/streptomycin, 50 ng/mL macrophage colony-stimulating factor (M-CSF, Bio-Techne, Noyal-Chatillon-sur-Seiche, France), and 30 ng/mL receptor activator of NF-κB ligand (RANKL, Bio-Techne) in the presence or absence of 10 nM Exendin-4. D-Ala2-GIP at a concentration of 10 nM was used as positive controls, as previously reported ([39]). Cells were cultured for 7 days, with media changes every 2 days. Osteoclast differentiation was evaluated by TRAP staining, as previously described ([39]).
Supplementary Figure S4 – Effect of Exendin-4 on osteoclast differentiation in vitro. Splenocytes were isolated from BALB/c ovariectomized (OVX) mice at 12 weeks of age, 4 weeks post-ovariectomy, and cultured in osteoclast differentiation medium containing M-CSF and RANKL, with or without 10 nM Exendin-4. Cells were cultured for 7 days, and osteoclast differentiation was assessed by TRAP staining.
D-Ala2-GIP was used at 10 nM and served as positive controls. […]

In assay [2] the test system is animal models of bone fragility. Conditions: subcutaneous, OVX model; cited from earlier work. The source says:
These observations formed the basis for investigating the potential utility of a GLP-1r agonist for the management of bone fragility. Ex-4 has already been administered subcutaneously in preclinical models of bone fragility, including the OVX model used in the present study. Previous studies have reported positive effects of Ex-4 that increased bone mineral density, trabecular microstructure and circulating calcitonin leve ...

Take exendin-4 [Ex-4]: the osteoclast differentiation result in assay [1] is listed as “No significant differences in osteoclast differentiation”. Moreover, the “bone mineral density, trabecular microstructure, calcitonin, osteoclast parameters, bone strength” value in assay [2] is “increased bone mineral density, trabecular microstructure and circulating calcitonin levels and reduced osteoclast parameters, resulting in greater bone strength”.
